A melting point compilation (Tetko et al.)

| SMILES | melting point [°C] |
| --- | --- |
| NCCC(=O)N1CCN(c2ncccn2)CC1 | 87 to 89 |
| O=C(c1ccccc1O)N1CCCCC1 | 133 to 135 |
| O=C(O)C1=CCCS1 | 126 to 128 |
| O=C(O)c1cncnc1-c1ccccc1 | 141 to 143 |
| CN(CCC(N)=S)C(=O)OC(C)(C)C | 79 to 81 |
| Nc1nc2ccc(Cl)cn2n1 | 183 to 185 |
| C=CCNC(=O)NC(=O)C(C)Cl (stereo unspecified) | 68 to 70 |
| BrCCOc1ccc2ccccc2c1 | 94 to 96 |
| Cc1ccc(S(=O)(=O)c2ccc(CBr)cc2)cc1 | 137 to 139 |
| COc1cccc(C(=O)O)c1OC(F)F | 152 to 154 |
| Clc1ccc2c(Cl)ncnc2c1 | 136 to 138 |
| COC(=O)C1CNC(=O)C1 (stereo unspecified) | 58 to 60 |
| Cn1cc(-c2nnc(N)o2)cn1 | 253 to 255 |
| CCS(=O)(=O)c1cccc(C(=O)O)c1 | 160 to 162 |
| O=C(O)c1csc(-c2cnn(-c3ccccc3)n2)n1 | 239 to 241 |
| CN[C@@H]1CN(C(=O)OC(C)(C)C)C[C@H]1O | 89 to 91 |
| Cc1c(S(=O)(=O)Cl)sc2cccc(F)c12 | 114 to 116 |
| NCC(O)c1ccc(Cl)cc1 (stereo unspecified) | 97 to 99 |
| CC(C)(C)OC(=O)Nc1cnsn1 | 93 to 95 |
| CS(=O)(=O)c1ccccc1NN | 75 to 77 |
| O=C(O)CCn1ncc2ccc([N+](=O)[O-])cc21 | 151 to 153 |
| N#CCOc1ccc(Cl)cc1CBr | 85 to 87 |
| O=C(CCc1ccccc1)NC1CCN(C(=O)CCl)CC1 | 144 to 146 |
| Cc1cc(N)nc(Cl)n1 | 220 to 222 |
| NS(=O)(=O)CCC(=O)O | 111 to 113 |

| SMILES | melting point [°C] |
| --- | --- |
| Cc1cccc2c1CCC2=O | 94 to 96 |
| C=CCOc1ccc(C(=O)c2ccccc2)c(O)c1 | 67 to 70 |
| O=C(O)Cn1cc2ccccc2n1 | 248 to 250 |
| CN(C)C(=O)c1ccccc1C(=O)O | 124 to 126 |
| O=C(O)C1CCN(c2ncccn2)CC1 | 94 to 96 |
| NC1(CO)Cc2ccccc2C1 | 107 to 109 |
| Sc1nc2ccccc2nc1S | 345 to 347 |
| CCC(C)n1ncc2c(C(=O)O)cc(C)nc21 (stereo unspecified) | 148 to 150 |
| N#CCc1cc(Br)c2c(c1)C=CCO2 | 79 to 81 |
| NC(=O)Cc1nc2ccccc2[nH]1 | 229 to 231 |
| CC(C)=CCSc1ccccc1C(=O)O | 138 to 140 |
| Cc1ccc(S(=O)(=O)NCCN)s1 | 94 to 96 |
| N#CCCN(C(=O)CCl)c1ccc(F)cc1 | 85 to 87 |
| Cc1nc2sccc2c(=O)n1N | 181 to 183 |
| CN1CCN(C(N)=S)CC1 | 179 to 181 |
| CC(C)(C)C(=O)c1ccsc1N | 101 to 103 |
| O=C(O)C(Sc1ccccc1Cl)c1ccccc1 (stereo unspecified) | 116 to 118 |
| Nn1c(S)nnc1-c1ccccc1F | 184 to 186 |
| OCc1sc2ccccc2c1Cl | 90 to 92 |
| N#Cc1cc(Cl)ccc1CS(=O)(=O)Cl | 106 to 108 |
| CSc1nc(-c2ccc(F)cc2)nc(C)c1C(=O)O | 231 to 233 |
| CC(C)(C)c1ncsc1C(=O)O | 185 to 187 |
| CNS(=O)(=O)c1ccc(CCC(=O)O)cc1 | 188 to 190 |
| Cc1ccc(-n2nc(C)cc2N)cc1 | 118 to 120 |
| Cc1cc(C(=O)O)c(C)nn1 | 132 to 134 |

| SMILES | melting point [°C] |
| --- | --- |
| CC(C(=O)Nc1ccc(N)cc1)n1cncn1 (stereo unspecified) | 202 to 204 |
| c1ccc(CN2CCN(c3ccccc3)CC2)cc1 | 51 to 53 |
| CC1CCCC(C)N1C(=O)CCl (stereo unspecified) | 71 to 73 |
| Nc1ccc(C(=O)N2CCCCCC2)cc1 | 133 to 135 |
| O=CN1CCN(S(=O)(=O)Cl)CC1 | 103 to 105 |
| CN(CC(=O)O)c1cnccn1 | 170 to 172 |
| Cc1cc(N2CCN(C)CC2)ccc1N | 100 to 102 |
| Cc1cnc(C(=O)O)c(C)c1 | 150 to 152 |
| CCOc1cc(C(=O)O)ccn1 | 171 to 173 |
| C#CCNC(=O)CBr | 73 to 75 |
| Cc1ccc(C(=O)NC=C(Cl)Cl)cc1 | 96 to 98 |
| O=C(O)C1(c2ccc(Br)cc2)CCOCC1 | 195 to 197 |
| O=c1oc2ccccc2o1 | 116 to 118 |
| OCc1ncc[nH]1 | 99 to 101 |
| OCc1coc(-c2ccccc2)n1 | 79 to 81 |
| O=Cc1cc(Cl)cc2cccnc12 | 155 to 157 |
| O=C(O)c1nn(-c2ccc(F)cc2)c2c1CCCCC2 | 167 to 169 |
| O=C(O)c1cc(-c2ccco2)nc2onc(C3CC3)c12 | 215 to 217 |
| O=C(O)Cc1ccc(OCCOc2ccccc2)cc1 | 169 to 171 |
| COc1ccc(-c2nc3c(s2)C(=O)CCC3)cc1 | 112 to 114 |
| c1cc(-c2ncc[nH]2)ccn1 | 208 to 210 |
| O=C(CCl)c1sccc1Br | 75 to 77 |
| Cc1nc(-c2cc(C(=O)O)n(C)c2)cs1 | 171 to 173 |
| CC(=O)c1cc(-c2ccccc2)ccc1O | 49 to 51 |
| N#Cc1cc2ccccc2[nH]c1=O | 327 to 329 |

| SMILES | melting point [°C] |
| --- | --- |
| CC(C)(C)OC(=O)NC1CCCC(C(=O)O)C1 (stereo unspecified) | 126 to 128 |
| COc1cc(C=O)ccc1OCc1ccncc1 | 106 to 108 |
| NC(=O)c1ccoc1 | 174 to 176 |
| ClCc1nc(-c2cccs2)n[nH]1 | 159 to 161 |
| COc1ccc(CNc2c([N+](=O)[O-])ncn2C)cc1OC | 196 to 198 |
| Cc1cc2nc(C)c(CCC(=O)O)c(C)n2n1 | 260 to 262 |
| CC(NC(=O)CNC(=O)CCl)c1ccc(F)cc1 (stereo unspecified) | 137 to 139 |
| CCc1nc(N)[nH]c(=S)n1 | 239 to 241 |
| COc1cccc2c1CCC2=O | 105 to 107 |
| Nn1cn[nH]c1=O | 169 to 171 |
| O=C1NCC2(CCCCC2)O1 | 96 to 98 |
| CN1C(=O)CCC(C(=O)O)C1c1cnn(C)c1 (stereo unspecified) | 225 to 227 |
| O=C(O)c1ccccc1Cc1nc2ccccc2s1 | 182 to 184 |
| CS(=O)(=O)NCc1ccc(N)cc1 | 146 to 148 |
| OCc1ccc(F)cc1Br | 69 to 71 |
| NNc1ccc(S(=O)(=O)NCc2ccco2)cn1 | 144 to 146 |
| Cc1ccc(-c2nnc(N)s2)c(C)c1 | 180 to 182 |
| O=C(O)C1(C(=O)NC2CC2)CC1 | 145 to 147 |
| O=C(CCl)NOCc1ccccc1 | 92 to 94 |
| Nc1cc(-n2nnnc2C2CC2)ccc1F | 112 to 114 |
| NS(=O)(=O)c1ccc(S(=O)(=O)Cl)c(F)c1 | 111 to 113 |
| O=C(O)CCc1cnn(-c2ccccc2)c1 | 80 to 89 |

Now from value to compound:

| melting point [°C] | SMILES |
| --- | --- |
| 158 to 160 | Nc1ccc(C(=O)NC2CC2)c(Cl)c1 |
| 307 to 309 | O=C(O)c1c[nH]c(=O)c(Br)c1 |
| 86 to 88 | O=C(CN1CCNCC1)Nc1ccc(OC(F)(F)F)cc1 |
| 141 to 143 | Cc1cc(C(=O)CCl)c(C)n1NC(=O)c1ccccc1 |
| 77 to 79 | Cc1cc(Br)ccc1NC(=O)CCN |
| 73 to 75 | CC(C)(C)OC(=O)NCCOc1ccc(N)cc1 |
| 199 to 201 | CS(=O)(=O)Nc1ccc(Cl)cc1C(=O)O |
| 94 to 96 | CCOc1cc(C=O)cc(Br)c1OC(F)F |
| 80 to 82 | Cc1cc(C(=O)CCl)c(C)n1CCc1ccccc1 |
| 205 to 207 | Cc1ccc(S(=O)(=O)Nc2cc(Cl)ccc2C(=O)O)cc1 |
| 193 to 195 | O=C(O)CCSCc1nc2ccccc2c(=O)[nH]1 |
| 155 to 157 | Cc1c(NS(=O)(=O)c2cc(C(=O)O)cc(Cl)c2Cl)c(=O)n(-c2ccccc2)n1C |
| 169 to 171 | Nc1ccc(S(=O)(=O)N2CCOCC2)cc1N |
| 186 to 188 | CC(=O)NCc1ccc(C(=O)O)s1 |
| 76 to 78 | CC(CC(=O)O)c1ccccc1C(F)(F)F (stereo unspecified) |
| 227 to 229 | O=C1COc2cc(NC(=O)OCC(F)(F)F)c(Cl)cc2N1 |
| 139 to 141 | O=C1CN(c2cc(Cl)ccc2Cl)CC(=O)N1 |
| 73 to 75 | COc1cc(C)c(S(=O)(=O)Cl)cc1OC |
| 88 to 90 | CCOC(=O)c1cnn(-c2ccc(C(F)(F)F)cn2)c1C |
| 137 to 139 | COCCNS(=O)(=O)c1ccc(C)c(C(=O)O)c1 |
| 114 to 116 | CCOC(=O)Cn1ncc2ccc(N)cc21 |
| 107 to 109 | CCc1ccccc1OCC(=O)NN |
| 79 to 81 | CCOC(=O)Nc1ccc(Br)cc1N |
| 154 to 156 | O=C(O)CSc1nnc(-c2ccc(Cl)cc2)o1 |
| 125 to 129 | CN(C)S(=O)(=O)c1cc(N)ccc1Cl |

| melting point [°C] | SMILES |
| --- | --- |
| 174 to 176 | O=C(O)CNc1cccc(Cl)c1 |
| 311 to 313 | O=C(O)c1cc(/C=C/c2ccc(OC(F)(F)F)cc2)nc2ccc(Br)cc12 |
| 109 to 111 | O=C(CCl)c1ccc2c(c1)COC2 |
| 194 to 196 | CN(C)c1cc(C(=O)O)cc(Cl)n1 |
| 69 to 71 | N#CCC(=O)N(CC(F)(F)F)C1CC1 |
| 210 to 212 | O=C(O)c1cc(F)cc(Cl)c1O |
| 53 to 55 | COc1cc(F)c(S(=O)(=O)Cl)c(F)c1 |
| 133 to 135 | O=C(CCl)c1ccc2c(c1)-c1ccccc1C2 |
| 46 to 48 | O=C(CC(F)(F)F)c1ccc(F)cc1F |
| 155 to 158 | Cc1ccc(Oc2ccc(NC(=O)CCl)cc2)cc1 |
| 152 to 154 | CCOC(=O)c1ccc2c(c1)nc(S)n2CC |
| 142 to 144 | O=C1CN(Cc2ccc(Br)cc2F)CCN1 |
| 102 to 104 | O=C1CCC(Cc2cccc(O)c2)O1 (stereo unspecified) |
| 86 to 88 | O=C(CCl)NC1CCOc2ccccc21 (stereo unspecified) |
| 175 to 178 | O=C(O)c1ccc(F)c(S(=O)(=O)N2CCOCC2)c1 |
| 161 to 163 | O=C(O)c1ccc(C(F)(F)F)[nH]c1=O |
| 99 to 101 | NC(=O)CCc1ccc(F)c(F)c1 |
| 221 to 223 | CNC(=O)COc1ccc(C(=O)O)cc1OC |
| 159 to 161 | CCOc1ccc2c(c1)C(=O)NC2=O |
| 99 to 103 | Cc1cc(C(=O)CCl)c(C)n1-c1ccc2c(c1)OCCO2 |
| 120 to 122 | COC(=O)c1sccc1S(N)(=O)=O |
| 159 to 161 | Cc1cc(N)ccc1N1CCCC1=O |
| 158 to 160 | O=C(O)c1cc([N+](=O)[O-])c(F)cc1I |
| 175 to 186 | O=C(O)/C=C/c1ccc(Br)c(Cl)c1 |
